From the NIST ThermoML archive (doi:10.1016/j.tca.2015.01.022)
± gives the expanded uncertainty stated by the source.

Assay: molar heat capacity at constant pressure
Details: 101.33 kPa, Glass, Small (less than 1 g) adiabatic calorimetry

CCOS(=O)(=O)[O-].CCn1cc[n+](C)c1 [1-ethyl-3-methylimidazolium ethyl sulfate]
Details	molar heat capacity at constant pressure [J/K/mol]
5 K	1.02 ± 0.04
7.21 K	2.892 ± 0.072
7.52 K	3.232 ± 0.078
7.89 K	3.662 ± 0.086
8.26 K	4.116 ± 0.093
8.64 K	4.61 ± 0.1
9.02 K	5.113 ± 0.11
9.4 K	5.662 ± 0.12
9.78 K	6.226 ± 0.13
10 K	6.55 ± 0.14
10.17 K	6.81 ± 0.14
10.66 K	7.609 ± 0.15
11.26 K	8.587 ± 0.16
11.87 K	9.634 ± 0.17
12.47 K	10.71 ± 0.18
13.09 K	11.85 ± 0.19
13.7 K	13.01 ± 0.2
14.32 K	14.24 ± 0.21
14.95 K	15.52 ± 0.22
15 K	15.63 ± 0.23
15.69 K	17.06 ± 0.23
16.54 K	18.87 ± 0.24
17.39 K	20.71 ± 0.25
18.24 K	22.56 ± 0.25
19.1 K	24.43 ± 0.26
19.96 K	26.32 ± 0.26
20 K	26.45 ± 0.27
21.16 K	29.04 ± 0.28
22.71 K	32.61 ± 0.3
24.26 K	36.22 ± 0.31
25 K	37.93 ± 0.32
25.81 K	39.86 ± 0.33
27.37 K	43.43 ± 0.34
28.95 K	47.02 ± 0.35
30 K	49.4 ± 0.32
30.54 K	50.61 ± 0.32
32.28 K	54.42 ± 0.34
33.12 K	56.24 ± 0.35
35 K	60.18 ± 0.37
35.01 K	60.28 ± 0.37
36.91 K	64.15 ± 0.39
38.82 K	68 ± 0.41
40 K	70.37 ± 0.43
40.72 K	71.74 ± 0.43
42.73 K	75.61 ± 0.45
44.84 K	79.65 ± 0.48
45 K	79.98 ± 0.48
46.95 K	83.58 ± 0.5
49.06 K	87.43 ± 0.52
50 K	89 ± 0.53
51.17 K	91.07 ± 0.54
53.29 K	94.63 ± 0.55
55.41 K	98.01 ± 0.57
57.53 K	101.3 ± 0.6
59.66 K	104.5 ± 0.6
60 K	105.1 ± 0.6
61.79 K	107.7 ± 0.6
63.92 K	110.7 ± 0.6
66.06 K	113.7 ± 0.7
68.21 K	116.6 ± 0.7
70 K	119 ± 0.7
70.35 K	119.5 ± 0.7
72.59 K	122.4 ± 0.7
74.94 K	125.3 ± 0.7
77.3 K	128.3 ± 0.7
79.66 K	131.2 ± 0.8
80 K	131.5 ± 0.7
80.4 K	132.1 ± 0.8
82.02 K	133.9 ± 0.8
82.22 K	134.2 ± 0.8
84.05 K	136.2 ± 0.8
84.39 K	136.7 ± 0.8
85.88 K	138.3 ± 0.8
87.71 K	140.4 ± 0.8
89.54 K	142.4 ± 0.8
90 K	143 ± 0.8
91.38 K	144.4 ± 0.8
93.22 K	146.5 ± 0.8
95.06 K	148.5 ± 0.8
96.91 K	150.4 ± 0.8
98.76 K	152.4 ± 0.8
100 K	153.7 ± 0.8
100.61 K	154.3 ± 0.8
102.46 K	156.2 ± 0.9
104.31 K	158 ± 0.9
106.16 K	159.9 ± 0.9
108.05 K	161.9 ± 0.9
109.91 K	163.7 ± 0.9
110 K	163.7 ± 0.9
111.77 K	165.5 ± 0.9
113.63 K	167.3 ± 0.9
115.49 K	169.2 ± 0.9
117.36 K	171 ± 0.9
119.23 K	172.8 ± 0.9
120 K	173.5 ± 0.9
121.1 K	174.6 ± 0.9
122.98 K	176.4 ± 1
124.42 K	177.8 ± 1
124.85 K	178.2 ± 1
126.41 K	179.7 ± 1
126.73 K	180 ± 1
128.28 K	181.4 ± 1
128.61 K	181.8 ± 1
130 K	183.1 ± 1
130.16 K	183.3 ± 1
130.5 K	183.6 ± 1
132.03 K	185.1 ± 1
132.38 K	185.4 ± 1
133.91 K	186.9 ± 1
134.27 K	187.2 ± 1
135.79 K	188.7 ± 1
136.16 K	189.1 ± 1
137.67 K	190.6 ± 1
138.05 K	190.9 ± 1
139.55 K	192.4 ± 1
139.95 K	192.7 ± 1
140 K	192.8 ± 1.1
141.43 K	194.2 ± 1
141.84 K	194.5 ± 1
143.31 K	196 ± 1
143.74 K	196.4 ± 1.1
145.19 K	197.9 ± 1.1
145.64 K	198.2 ± 1.1
147.07 K	199.7 ± 1.1
147.53 K	200.1 ± 1.1
148.95 K	201.6 ± 1.1
149.43 K	202 ± 1.1
150 K	202.6 ± 1.1
150.83 K	203.5 ± 1.1
151.33 K	203.9 ± 1.1
152.71 K	205.3 ± 1.1
153.23 K	205.8 ± 1.1
154.59 K	207.2 ± 1.1
155.13 K	207.8 ± 1.1
155.16 K	207.7 ± 1.1
156.47 K	209.1 ± 1.1
157.04 K	209.7 ± 1.1
157.27 K	209.9 ± 1.1
158.34 K	211.1 ± 1.1
158.94 K	211.7 ± 1.1
159.27 K	212 ± 1.1
160 K	212.7 ± 1.2
160.22 K	213.1 ± 1.1
160.84 K	213.8 ± 1.1
161.27 K	214.3 ± 1.1
162.09 K	215 ± 1.1
162.75 K	215.8 ± 1.1
163.26 K	216.4 ± 1.1
163.96 K	217.2 ± 1.2
164.67 K	217.8 ± 1.2
165.26 K	218.6 ± 1.2
165.83 K	219.3 ± 1.2
166.58 K	220.1 ± 1.2
167.25 K	221 ± 1.2
167.7 K	221.5 ± 1.2
168.51 K	222.3 ± 1.2
169.24 K	223.4 ± 1.2
169.57 K	223.8 ± 1.2
170 K	224.3 ± 1.2
170.43 K	224.8 ± 1.2
171.36 K	226.2 ± 1.2
171.44 K	226.5 ± 1.2
172.36 K	227.7 ± 1.2
173.31 K	229.1 ± 1.2
173.44 K	229.3 ± 1.2
174.29 K	230.5 ± 1.2
175.18 K	232 ± 1.2
175.43 K	232.4 ± 1.2
176.22 K	233.7 ± 1.2
177.04 K	235.4 ± 1.2
177.41 K	236.3 ± 1.2
178.16 K	237.7 ± 1.3
178.9 K	239.4 ± 1.3
179.39 K	240.8 ± 1.3
180 K	242.6 ± 1.3
180.1 K	242.9 ± 1.3
